Source: patent publication US8653046B2, “Controlling transgene expression across the skin” (ETH Zurich, priority 2009, dated 2014)

Tests used:
TtgA1 (TtgR-VP16) = TtgA1 (TtgR-VP16) (Pseudomonas putida, UniProt Q9AIU0); experiment: PEACE: SEAP expression after transient co-transfection of pMG10 (PTtgR1-SEAP-pA) and pMG11 (PSV40-TtgA1-pA); assay type: cell-based; design: key to SEAP Production: ^a): Undetectable; conditions: 48 h
Description: Living in the plant rhizosphere, Pseudomonas putida DOT-T1E has evolved resistance to a variety of plant-derived antimicrobials, which is triggered by phloretin-induced release of TtgR protein from the operator (OTtgR) of its target promoter and subsequent induction of a broadly specific TtgABC efflux pump (Teran W. et al., loc. cit.).
Three different transactivators are designed, harboring either the VP16 (TtgA1; pMG11, TtgR-VP16) (Triezenberg S. J. et al., loc. cit.), the p65 (TtgA2; pMG18, TtgR-p65) (Urlinger S., et al., 2000, Gene 247(1-2):103-110) or the human E2F4 (TtgA3; pMG19, TtgR-E2F4) (Akagi K., Kanai M., Saya H., Kozu T., Berns A., 2001, Nucleic Acids Res 29(4):e23) transactivation domains. pMG11, pMG18 or pMG19 are co-transfected with pMG10 (PTtgR1-SEAP-pA) into CHO-K1, HEK-293 as well as primary human fibroblasts and keratinocytes, and SEAP expression is profiled after 48 h of cultivation in the presence or absence of 50 μM phloretin.
CHO-K1 are transiently (co-)transfected with either pMG10 (PTtgR1-SEAP-pA) and pMG11 (PSV40-TtgA1-pA), to score regulation performance, or with pSEAP2-Control (PSV40-SEAP-pA), to assess compound-related cytotoxicity, and then cultivated for 48 h in medium containing different concentrations (0, 25, 50 μM) of specific flavonoid type compounds (berberine, butylparaben, genistein, luteolin, β-naphthol, naringenin, phloretin, phloridzin or quercetin) before SEAP production is profiled (FIG. 5A).
Wild-type Chinese hamster ovary cells (CHO-K1, ATCC: CCL-61) and their derivatives are cultivated in standard medium: ChoMaster® HTS (Cell Culture Technologies, Gravesano, Switzerland) supplemented with 5% (v/v) fetal calf serum (FCS, PAN Biotech GmbH, Aidenbach, Germany, Cat. No. 3302, Lot No. P251110) and 1% (v/v) penicillin/streptomycin solution (Sigma, St Louis, Mo., USA, Cat. No. P4458). Human embryonic kidney cells (HEK-293, Mitta B., et al., 2002, Nucleic Acids Res 30(21):e113), African green monkey kidney cells (COS-7, ATCC: CRL-1651), baby hamster kidney cells (BHK-21, ATCC: CCL10), human fibrosarcoma cells (HT-1080, ATCC: CCL-121), the human keratinocyte cell line HaCaT (Boukamp P., et al., 1988, J Cell Biol 106(3):761-771) and mouse fibroblasts (NIH/3T3, ATCC: CRL-1658) are cultured in Dulbecco's modified Eagle's medium (DMEM; Invitrogen, Cat. No. 52100-39) supplemented with 10% FCS (v/v) and 1% (v/v) penicillin/streptomycin solution. Primary human foreskin fibroblasts are cultivated in DMEM supplemented with 20% FCS (v/v) and 1% (v/v) penicillin/streptomycin solution and primary human foreskin keratinocytes are cultured in chemically defined serum-free keratinocyte medium (Invitrogen, Cat. No. 10744019). All cell types are cultivated at 37° C. in a 5% CO2-containing humidified atmosphere.

[1] = system: CHO-K1 cells transgenic for constitutive SEAP expression; experiment: Control mice receiving CHO-K1 cells transgenic for constitutive SEAP expression, phloretin skin lotion; assay type: in vivo, female OF1 mice; conditions: constitutive SEAP implant; skin lotion with 42 mg phloretin (0 mg: 6.2±0.43 U/L)
Protocol: CHO-PEACE8 is microencapsulated in coherent alginate-PLL-alginate capsules and implanted subcutaneously into mice. The back of treated mice is partially shaved and vaseline-based skin lotions (200 μL) containing different amounts of phloretin (0-42 mg) are put on every day. […] Control mice receiving CHO-K1 cells transgenic for constitutive SEAP expression are insensitive to any treatment with phloretin-containing skin lotion (0 mg phloretin: 6.2±0.43 U/L; 42 mg phloretin: 6.02±0.58 U/L).
CHO-PEACE8 and CHO-SEAP18 (Fluri D. A., Kemmer C., Daoud-El Baba M., Fussenegger M., 2008, J Control Release 131(3):211-219) are encapsulated in alginate-poly-(L-lysine)-alginate beads (400 μm; 200 cells/capsule) using an Inotech Encapsulator Research IE-50R (Recipharm, Basel, Switzerland) according to the manufacturer's instructions and the following parameters: 0.2 mm nozzle, 20 mL syringe at a flow rate of 405 units, nozzle vibration frequency of 1024 Hz and 900 V for bead dispersion. […] Thereafter, the mice are sacrificed, blood samples collected and SEAP levels are quantified in the serum which is isolated using microtainer SST tube according to the manufacturer's instructions (Beckton Dickinson, Plymouth, UK). […]

TtgA1 (TtgR-VP16), sequence (Q9AIU0 whole entry, added parts left off): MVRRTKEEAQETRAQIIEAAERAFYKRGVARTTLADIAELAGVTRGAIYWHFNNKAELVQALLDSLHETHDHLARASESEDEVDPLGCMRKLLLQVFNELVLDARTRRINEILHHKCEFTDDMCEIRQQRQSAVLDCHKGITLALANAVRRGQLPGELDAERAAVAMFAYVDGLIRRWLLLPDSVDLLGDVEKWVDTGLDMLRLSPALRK

SMILES: O=C(CCc1ccc(O)cc1)c1c(O)cc(O)cc1O [phloretin, 3-[4-hydroxyphenyl]-1-[2,4,6-trihydroxyphenyl]-1-propanone]
- SEAP Production (TtgA1 (TtgR-VP16); BHK-21, 50 μM Phloretin): 1.5 ± 0.2 U/L
- PEACE regulation performance (SEAP production) (TtgA1 (TtgR-VP16); CHO-K1, 0, 25, 50 μM): full transgene repression
- SEAP expression dose response (TtgA1 (TtgR-VP16); CHO-K1, phloretin 0-70 μM): dose-dependent reduction of SEAP expression up to complete repression
- SEAP Production (TtgA1 (TtgR-VP16); CHO-K1, phloretin 50 μM): 0.2 ± 0.016 U/L
- SEAP Production (TtgA1 (TtgR-VP16); COS-7, 50 μM Phloretin): *
- SEAP Production (TtgA1 (TtgR-VP16); HEK-293, 50 μM Phloretin): 0.2 ± 0.04 U/L
- SEAP Production (TtgA1 (TtgR-VP16); HEK-293, phloretin 50 μM): 0.2 ± 0.04 U/L
- SEAP Production (TtgA1 (TtgR-VP16); HT-1080, 50 μM Phloretin): *
- SEAP Production (TtgA1 (TtgR-VP16); HaCaT, 50 μM Phloretin): *
- SEAP Production (TtgA1 (TtgR-VP16); NIH/3T3, 50 μM Phloretin): *
- SEAP Production (TtgA1 (TtgR-VP16); Primary human fibroblasts, 50 μM Phloretin): *
- SEAP Production (TtgA1 (TtgR-VP16); Primary human keratinocytes, 50 μM Phloretin): *
- SEAP level in control mice [1]: 6.02±0.58 U/L
